Experimental findings from PubChem BioAssay AID220 (DTP/NCI, 2004) are described below.

Each structure is given as a SMILES string. Values joined by “and” are separate entries in the source; they are usually repeats but may differ in a detail not shown here. Identical values can stand only once. Results filed as inconclusive are left out.

This test deals with CD8F1 mice, subcutaneous mammary adenocarcinoma, T/C%. Nature of the test: NCI In Vivo Anticancer Drug Screen. Data for tumor model Mammary Adenocarcinoma CD8F1 (subcutaneous) in CD8F1. The settings on record: higher = larger tumour. In outline: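 Tumor-bearing mice, transplantable model; readout survival or tumor size; value = treated (T) / vehicle control (C).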
Where [1] appears, read: endpoint: median tumor weight (est.), dose: 100.0 mg/kg/injection, schedule: Q07DX005 (ip), vehicle: saline with Tween-80.
[2] abbreviates: endpoint: median tumor weight (est.), dose: 200.0 mg/kg/injection, schedule: Q07DX005 (ip), vehicle: saline with Tween-80.
The mark [3] stands for this setting: endpoint: median tumor weight (est.), dose: 25.0 mg/kg/injection, schedule: Q07DX005 (ip), vehicle: saline with Tween-80.
Where [4] appears, read: endpoint: median tumor weight (est.), dose: 50.0 mg/kg/injection, schedule: Q07DX005 (ip), vehicle: saline with Tween-80.
The mark [5] stands for this setting: endpoint: median tumor weight change, dose: 15.62 mg/kg/injection, schedule: Q01DX001 (ip), vehicle: saline with Tween-80.
The mark [6] stands for this setting: endpoint: median tumor weight change, dose: 62.5 mg/kg/injection, schedule: Q01DX001 (ip), vehicle: saline with Tween-80.
The mark [7] stands for this setting: endpoint: median tumor weight change, dose: 125.0 mg/kg/injection, schedule: Q01DX001 (ip), vehicle: saline with Tween-80.
The mark [8] stands for this setting: endpoint: median tumor weight change, dose: 1000.0 mg/kg/injection, schedule: Q01DX001 (ip), vehicle: saline with Tween-80.
The mark [9] stands for this setting: endpoint: median tumor weight change, dose: 31.25 mg/kg/injection, schedule: Q01DX001 (ip), vehicle: saline with Tween-80.

On to `O=c1cnn(C2OC(CO)C(O)C2O)c(=O)[nH]1` (centres undefined), for which the T/C was 67 % of control (endpoint: mean tumor weight, dose: 125.0 mg/kg/injection, schedule: Q07DX004 (ip), vehicle: saline); 49 % of control (endpoint: mean tumor weight, dose: 250.0 mg/kg/injection, schedule: Q07DX004 (ip), vehicle: saline); 63 % of control under setting [1]; 17 % of control (endpoint: median tumor weight (est.), dose: 100.0 mg/kg/injection, schedule: Q07DX005 (ip), vehicle: saline); 95 % of control under setting [2]; 63 % of control (endpoint: median tumor weight (est.), dose: 200.0 mg/kg/injection, schedule: Q07DX005 (ip), vehicle: saline). Besides, the T/C was 53 % of control (endpoint: median tumor weight (est.), dose: 400.0 mg/kg/injection, schedule: Q07DX005 (ip), vehicle: saline with Tween-80); 41 % of control (endpoint: median tumor weight (est.), dose: 400.0 mg/kg/injection, schedule: Q07DX005 (ip), vehicle: saline); 66 % of control (endpoint: median tumor weight (est.), dose: 800.0 mg/kg/injection, schedule: Q07DX005 (ip), vehicle: saline with Tween-80); 64 % of control (endpoint: median tumor weight (est.), dose: 800.0 mg/kg/injection, schedule: Q07DX005 (ip), vehicle: saline); 68 % of control (endpoint: median tumor weight (est.), dose: 1600.0 mg/kg/injection, schedule: Q07DX005 (ip), vehicle: saline with Tween-80); 54 % of control (endpoint: median tumor weight (est.), dose: 3200.0 mg/kg/injection, schedule: Q07DX005 (ip), vehicle: saline with Tween-80). Besides, where the note is “endpoint: median tumor weight (est.), dose: 3200.0 mg/kg/injection, schedule: Q07DX005 (ip), vehicle: saline”, the T/C is 76 % of control.
Consider `CCOC(C)C(/C=N/NC(N)=S)=NNC(N)=S` (centres undefined), for which the T/C is 87 % of control and 109 % of control under setting [3]; 85 % of control and 88 % of control under setting [4]; 78 % of control and 96 % of control under setting [1].
In the case of `CC1c2ccccc2CC(CCN(C)C)c2ccccc21` (centres undefined), the T/C is 76 % of control (endpoint: median tumor weight change, dose: 1.95 mg/kg/injection, schedule: Q01DX001 (ip), vehicle: saline with Tween-80); 71 % of control (endpoint: median tumor weight change, dose: 3.9 mg/kg/injection, schedule: Q01DX001 (ip), vehicle: saline with Tween-80); 87 % of control (endpoint: median tumor weight change, dose: 7.8 mg/kg/injection, schedule: Q01DX001 (ip), vehicle: saline with Tween-80); 73 % of control under setting [5].
As to `CC1=CC(=Nc2ccc(N(CCCl)CCCl)cc2)C=C(C)C1=O`, the T/C is 61 % of control and 69 % of control (endpoint: median tumor weight (est.), dose: 6.25 mg/kg/injection, schedule: Q07DX005 (ip), vehicle: Klucel (hydroxypropylcellulose) (HPC)); 32 % of control and 44 % of control (endpoint: median tumor weight (est.), dose: 50.0 mg/kg/injection, schedule: Q07DX005 (ip), vehicle: Klucel (hydroxypropylcellulose) (HPC)); 45 % of control (endpoint: median tumor weight (est.), dose: 100.0 mg/kg/injection, schedule: Q07DX005 (ip), vehicle: Klucel (hydroxypropylcellulose) (HPC)).
Consider `C=C(C(=O)O)C(N)C(=O)O` (centres undefined), for which the T/C was 96 % of control (endpoint: median tumor weight change, dose: 62.5 mg/kg/injection, schedule: Q01DX001 (ip), vehicle: saline); 100 % of control (endpoint: median tumor weight change, dose: 125.0 mg/kg/injection, schedule: Q01DX001 (ip), vehicle: saline); 61 % of control (endpoint: median tumor weight change, dose: 250.0 mg/kg/injection, schedule: Q01DX001 (ip), vehicle: saline); 71 % of control (endpoint: median tumor weight change, dose: 500.0 mg/kg/injection, schedule: Q01DX001 (ip), vehicle: saline).
In the case of `O=C(N[C@H](CO)[C@H](O)c1ccc([N+](=O)[O-])cc1)C(Cl)Cl`, the T/C was 102 % of control under setting [6]; 91 % of control under setting [7]; 92 % of control (endpoint: median tumor weight change, dose: 250.0 mg/kg/injection, schedule: Q01DX001 (ip), vehicle: saline with Tween-80); 73 % of control (endpoint: median tumor weight change, dose: 500.0 mg/kg/injection, schedule: Q01DX001 (ip), vehicle: saline with Tween-80); 98 % of control under setting [8].
As to `CCC1=C2C(=O)c3ccccc3C2=C(C)S(=O)(=O)O1`, the T/C is, setting by setting: under setting [9], 120 % of control; under setting [6], 185 % of control; under setting [7], 116 % of control.
As to `O=c1ncccn1[C@@H]1O[C@H](CO)[C@H](O)C1O` (some centres undefined), the T/C is 78 % of control and 89 % of control (endpoint: median tumor weight change, dose: 1000.0 mg/kg/injection, schedule: Q01DX001 (ip), vehicle: saline); 95 % of control and 103 % of control (endpoint: median tumor weight change, dose: 2000.0 mg/kg/injection, schedule: Q01DX001 (ip), vehicle: saline).
As for `CC1=C[C@@]23[C@H](C=C(C(=O)O)[C@@H]2COC(=O)[C@]32CO2)[C@@H]1C`, the T/C is, setting by setting: (endpoint: median tumor weight change, dose: 0.31 mg/kg/injection, schedule: Q01DX001 (ip), vehicle: saline) 116 % of control; (endpoint: median tumor weight change, dose: 0.62 mg/kg/injection, schedule: Q01DX001 (ip), vehicle: saline) 115 % of control; (endpoint: median tumor weight change, dose: 1.25 mg/kg/injection, schedule: Q01DX001 (ip), vehicle: saline) 98 % of control; (endpoint: median tumor weight change, dose: 2.5 mg/kg/injection, schedule: Q01DX001 (ip), vehicle: saline) 85 % of control; (endpoint: median tumor weight change, dose: 5.0 mg/kg/injection, schedule: Q01DX001 (ip), vehicle: saline) 100 % of control.
As to `O=C(CO)c1ccc([N+](=O)[O-])cc1`, the T/C reads like this: (endpoint: median tumor weight (est.), dose: 6.25 mg/kg/injection, schedule: Q07DX005 (ip), vehicle: saline with Tween-80) 117 % of control; (endpoint: median tumor weight (est.), dose: 12.5 mg/kg/injection, schedule: Q07DX005 (ip), vehicle: saline with Tween-80) 112 % of control; under setting [3], 91 % of control; under setting [4], 118 % of control; under setting [2], 86 % of control.
For the compound `N/C(=N\OC(=O)Nc1ccc(CSc2ccc(Cl)cc2)o1)c1ccccn1`, the T/C is 64 % of control (endpoint: median tumor weight change, dose: 62.0 mg/kg/injection, schedule: Q01DX001 (ip), vehicle: Klucel (hydroxypropylcellulose) (HPC)); 99 % of control (endpoint: median tumor weight change, dose: 125.0 mg/kg/injection, schedule: Q01DX001 (ip), vehicle: Klucel (hydroxypropylcellulose) (HPC)); 80 % of control (endpoint: median tumor weight change, dose: 250.0 mg/kg/injection, schedule: Q01DX001 (ip), vehicle: Klucel (hydroxypropylcellulose) (HPC)).
Consider `COC12C(COC(N)=O)C3=C(C(=O)C(C)=C(N)C3=O)N1CC1C2N1C` (centres undefined), for which the T/C runs as follows: (endpoint: median tumor weight (est.), dose: 2.0 mg/kg/injection, schedule: Q07DX005 (ip), vehicle: suspension in saline) 53 % of control; (endpoint: median tumor weight (est.), dose: 4.0 mg/kg/injection, schedule: Q07DX005 (ip), vehicle: suspension in saline) 73 % of control; (endpoint: median tumor weight (est.), dose: 8.0 mg/kg/injection, schedule: Q07DX005 (ip), vehicle: suspension in saline) 3 % of control.
With `O=c1cc(-c2ccccc2)[nH]c2c1CCCC2`, the T/C under setting [8] was 78 % of control.
As to `C=C1C(=O)C23[C@H](O)C1CC[C@H]2[C@]12COC3(O)[C@@H](O)[C@@H]1C(C)(C)CC[C@@H]2O`, the T/C reads like this: (endpoint: median tumor weight (est.), dose: 8.75 mg/kg/injection, schedule: Q07DX005 (ip), vehicle: Klucel (hydroxypropylcellulose) (HPC)) 104 % of control; (endpoint: median tumor weight (est.), dose: 17.5 mg/kg/injection, schedule: Q07DX005 (ip), vehicle: Klucel (hydroxypropylcellulose) (HPC)) 65 % of control; under setting [5], 54 % of control; under setting [9], 61 % of control.
Regarding `O=C1c2ccccc2C(=O)c2c(NCCNCCO)ccc(O)c21`, the T/C (endpoint: median tumor weight change, dose: 25.0 mg/kg/injection, schedule: Q01DX001 (ip), vehicle: saline with Tween-80) is 91 % of control; the T/C (endpoint: median tumor weight change, dose: 50.0 mg/kg/injection, schedule: Q01DX001 (ip), vehicle: saline with Tween-80) is 44 % of control; the T/C (endpoint: median tumor weight change, dose: 100.0 mg/kg/injection, schedule: Q01DX001 (ip), vehicle: saline with Tween-80) is 41 % of control; the T/C (endpoint: median tumor weight change, dose: 200.0 mg/kg/injection, schedule: Q01DX001 (ip), vehicle: saline with Tween-80) is 33 % of control.
For the compound `Cc1c2ccc3ccccc3c2c[n+]2ccccc12`, the T/C is, setting by setting: (endpoint: median tumor weight (est.), dose: 2.5 mg/kg/injection, schedule: Q07DX005 (ip), vehicle: Klucel (hydroxypropylcellulose) (HPC)) 84 % of control; (endpoint: median tumor weight (est.), dose: 5.0 mg/kg/injection, schedule: Q07DX005 (ip), vehicle: Klucel (hydroxypropylcellulose) (HPC)) 86 % of control; (endpoint: median tumor weight (est.), dose: 10.0 mg/kg/injection, schedule: Q07DX005 (ip), vehicle: Klucel (hydroxypropylcellulose) (HPC)) 83 % of control; (endpoint: median tumor weight (est.), dose: 20.0 mg/kg/injection, schedule: Q07DX005 (ip), vehicle: Klucel (hydroxypropylcellulose) (HPC)) 57 % of control.
On to `COc1ccc(C(=O)C(CN(C)C)CN(C)C)cc1`, for which the T/C runs as follows: (endpoint: median tumor weight change, dose: 7.81 mg/kg/injection, schedule: Q01DX001 (ip), vehicle: saline) 103 % of control; (endpoint: median tumor weight change, dose: 15.62 mg/kg/injection, schedule: Q01DX001 (ip), vehicle: saline) 88 % of control; (endpoint: median tumor weight change, dose: 31.25 mg/kg/injection, schedule: Q01DX001 (ip), vehicle: saline) 84 % of control.
